Twelve compounds from ChEMBL document CHEMBL1153603, “Phenethyl pyridines with non-polar internal substituents as selective ligands for estrogen receptor beta” (Eur J Med Chem, 2009) can be followed below.

The target in experiment [1] is T1, Estrogen receptor beta (Homo sapiens, UniProt Q92731). The experiment is described as follows: Activity at human ERbeta expressed in HEC1 cells co-transfected with 2ERE-pS2-Luc assessed as relative transcriptional potency by luciferase reporter assay relative to estradiol. The class given is cell-based. Conditions: HEC-1.
A further experiment deals with T2, Estrogen receptor (Homo sapiens, UniProt P03372).
T2 sequence (P03372 whole entry): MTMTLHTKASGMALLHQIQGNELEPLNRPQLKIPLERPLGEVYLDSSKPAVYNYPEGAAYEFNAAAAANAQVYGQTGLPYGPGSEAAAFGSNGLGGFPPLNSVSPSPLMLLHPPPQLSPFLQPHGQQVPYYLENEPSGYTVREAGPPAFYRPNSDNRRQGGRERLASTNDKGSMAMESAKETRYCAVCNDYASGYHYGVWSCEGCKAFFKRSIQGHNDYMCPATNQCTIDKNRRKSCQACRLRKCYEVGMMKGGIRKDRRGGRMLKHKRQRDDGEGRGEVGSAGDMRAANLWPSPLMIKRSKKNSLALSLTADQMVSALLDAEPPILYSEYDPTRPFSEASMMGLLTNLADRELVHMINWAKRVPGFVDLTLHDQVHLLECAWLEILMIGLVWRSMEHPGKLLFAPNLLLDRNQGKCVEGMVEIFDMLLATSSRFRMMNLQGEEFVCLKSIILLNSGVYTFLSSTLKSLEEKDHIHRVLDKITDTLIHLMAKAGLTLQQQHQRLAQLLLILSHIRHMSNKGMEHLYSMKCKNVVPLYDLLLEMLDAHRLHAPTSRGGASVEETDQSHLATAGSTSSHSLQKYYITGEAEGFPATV
Briefly: Activity at human ERalpha expressed in HEC1 cells co-transfected with 2ERE-pS2-Luc assessed as relative transcriptional potency by luciferase reporter assay. The class given is cell-based, HEC-1. On the technique in general: Reporter assays use an easily measured gene product as a stand-in for the process of interest.

Experiment [2] has as its target T1, Estrogen receptor beta. Briefly: Displacement of [3H]estradiol form human ERbeta receptor assessed as relative binding affinity by competitive radiometric binding assay relative to estradiol. For orientation: Loss of bound radioactivity is the signal in a displacement assay; it reports binding, not function.
The target of experiment [3] is T1, Estrogen receptor beta. Briefly: Activity at human ERbeta expressed in HEC1 cells co-transfected with 2ERE-pS2-Luc assessed as relative transcriptional potency by luciferase reporter assay. In kind it is cell-based, HEC-1.

T1 sequence (Q92731 whole entry): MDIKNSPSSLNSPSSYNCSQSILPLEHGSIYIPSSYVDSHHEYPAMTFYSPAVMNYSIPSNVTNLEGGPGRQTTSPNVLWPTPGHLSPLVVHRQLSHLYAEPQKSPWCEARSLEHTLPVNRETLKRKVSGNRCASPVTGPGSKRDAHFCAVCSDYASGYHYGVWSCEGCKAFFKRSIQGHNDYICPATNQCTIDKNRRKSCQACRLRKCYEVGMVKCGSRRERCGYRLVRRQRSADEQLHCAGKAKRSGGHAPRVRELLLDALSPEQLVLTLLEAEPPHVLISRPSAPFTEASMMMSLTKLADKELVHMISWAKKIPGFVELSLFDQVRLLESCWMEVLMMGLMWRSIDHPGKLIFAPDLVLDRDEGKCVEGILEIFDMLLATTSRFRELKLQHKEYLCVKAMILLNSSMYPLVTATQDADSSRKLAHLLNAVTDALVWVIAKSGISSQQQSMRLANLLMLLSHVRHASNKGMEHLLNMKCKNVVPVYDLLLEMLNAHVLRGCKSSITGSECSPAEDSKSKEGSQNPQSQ

On to `CC(Cc1ccc(O)cn1)c1ccc(O)cc1` (stereo not given), for which, at Estrogen receptor beta [1], the Activity is 0.29%. Further, the EC50 on Estrogen receptor worked out at 440 nM; on Estrogen receptor beta [3] it was 170 nM. In addition, the RBA at Estrogen receptor beta [2] was determined as 0.17%.

Consider `CCCC(Cc1ccc(O)cc1)c1ccc(O)cn1` (stereo not given), for which the RBA on Estrogen receptor beta [2] is 0.101%.

For the compound `CC[C@H](c1ccc(O)cn1)[C@H](C)c1ccc(O)cc1` (relative stereo), on Estrogen receptor beta [2], the RBA was 0.119%.

As to `Oc1ccc(CCc2ccc(O)cn2)cc1`, the RBA at Estrogen receptor beta [2] came out at 0.025%.

With `CC(Cc1ccc(O)cc1)c1ccc(O)cn1` (stereo not given), the Activity on Estrogen receptor beta [1] came to 0.83%. The results for the 50% effective concentration (EC50) on Estrogen receptor and on Estrogen receptor beta [3] were 330 nM and 60 nM, respectively. The RBA on Estrogen receptor beta [2] amounted to 0.27%.

Turning to `CC[C@H](c1ccc(O)cc1)[C@H](CC)c1ccc(O)cn1` (relative stereo), the Activity on Estrogen receptor beta [1] is 1.9%. The values for the half-maximal effective concentration (EC50) at Estrogen receptor and on Estrogen receptor beta [3] were 16 nM and 26 nM, respectively. For the same compound, the RBA on Estrogen receptor beta [2] amounted to 0.67%.

For `CC[C@H](c1ccc(O)cn1)[C@@H](CC)c1ccccc1`, the RBA at Estrogen receptor beta [2] stood at 0.684%.

With `CC[C@H](c1ccccc1)[C@H](CC)c1ccc(O)cn1`, the RBA on Estrogen receptor beta [2] was determined as 0.023%.

Regarding `CC[C@H](c1ccc(O)cn1)[C@@H](C)c1ccc(O)cc1` (relative stereo), the Activity on Estrogen receptor beta [1] is 45%. In addition, the EC50 was determined as 0.11 nM at Estrogen receptor and 1.1 nM at Estrogen receptor beta [3]. At Estrogen receptor beta [2], the RBA was 5.3%.

For `CCC(Cc1ccc(O)cn1)c1ccc(O)cc1` (stereo not given), the RBA at Estrogen receptor beta [2] was 0.15%.

On to `CC[C@H](c1ccc(O)cn1)[C@@H](CC)c1ccc(O)cc1` (relative stereo), for which, on Estrogen receptor beta [1], the Activity stood at 82%. Further, the EC50 on Estrogen receptor was 0.11 nM; at Estrogen receptor beta [3], 0.61 nM. Besides, the RBA at Estrogen receptor beta [2] amounted to 7.5%.

As for `CCC(Cc1ccc(O)cc1)c1ccc(O)cn1` (stereo not given), the Activity on Estrogen receptor beta [1] was 2.94%. Moreover, the concentration giving a half-maximal response (EC50) at Estrogen receptor is 65 nM; on Estrogen receptor beta [3], 17 nM. Moreover, the RBA at Estrogen receptor beta [2] came out at 0.72%.

Usually EC50 stands for the midpoint of the concentration-response curve.
